Test results reported in patent US20110165202A1, “SOLID STATE FORMS OF FOSAMPRENAVIR CALCIUM SALT AND PROCESSES FOR PREPARATION THEREOF” (PLIVA HRVATSKA D.O.O., priority 2010, published 2011).

Test: solubility of rod like amorphous particles compared to Form I
Conditions: qualitative statement, no method or figures given

solubility: enhanced solubility compared to Form I
Structure (SMILES): CC(C)CN(C[C@@H](OP(=O)(O)O)[C@H](Cc1ccccc1)NC(=O)O[C@H]1CCOC1)S(=O)(=O)c1ccc(N)cc1 [rod like amorphous particles, calcium (2R, 3S)-1-(4-amino-N-isobutyl-phenylsulfonamido)-4-phenyl-3-(((S)-tetrahydrofuran-3-yloxy)carbonylamino)butan-2-yl phosphate]
